Legend:
[1] = tested on: estradiol; assay: Estradiol levels in postmenopausal women, six month treatment (HPLC-UV); format: in vivo, human; conditions: for Estradiol: baseline, prior to six month treatment, n = 30
Excerpt: (§1) Cardiovascular risk markers, according to various embodiments of the present invention, may comprise fasting insulin levels, fasting glucose levels, insulin resistance levels, osteoprotegerin levels, sex hormone-binding globulin levels, fibrinogen levels, estradiol levels and/or the like. […] See Crisafulli A., Altavilla D., Marini H., Bitto A., Cucinotta D., Frisina N., Corrado F., D'Anna R., Squadrito G., Adamo E., Marini R., Romeo A., Cancellieri F., Buemi M., Squadrito F., Menopause, The Journal of the North American Menopause Society, Vol. 12 No. 2 pp. 186-192.
(§2) Prior to this six month period, participants in the study were placed on a standard fat-reduced diet for four-weeks, which constituted a stabilization process.
(§3) The assay was performed by using an HPLC method with UV detection.
(§4) Data was presented as mean±SEM, and the significance of the difference was assessed by analysis of variance, where a value of P less than 0.05 was considered statistically significant.

[2] = tested on: sex hormone-binding globulin; assay: Sex hormone-binding globulin levels in postmenopausal women, six month treatment (immunoradiometric assay); format: in vivo, human; conditions: for Sex Hormone Binding Globulin: n = 30, mean±SEM
Excerpt: as §1, §2
To measure sex hormone-binding globulin levels, an immunoradiometric assay (RADIM SPA, Rome, Italy) (intra-assay CV 4%; interassay CV 5%; lower detection limit, 2.5 nmol/L) was used.
as §4

[3] = tested on: C-reactive protein; assay: Serum C-reactive protein in osteopenic women, six month study (immunochemiluminescent assay); format: in vivo, human
Excerpt: (§5) Inflammatory markers, according to various representative embodiments of the present invention, may comprise G-reactive proteins and/or homocysteine and/or the like. […] Prior to the six month period, participants in the study were placed on a standard fat-reduced diet for four-weeks, which constituted a stabilization process. The participants were then randomly assigned to receive either genistein, HRT or a placebo. Throughout the study period, samples were obtained while participants were fasting to minimize dietary effects. The samples were used to measure serum C-reactive protein and plasma homocysteine.
Serum C-reactive protein was measured using an immunochemiluminescent assay (Immulite DPC, Los Angeles, Calif., USA). Samples were stored after separation at −80° C. until assayed. Sensitivity was 0.07 μg/ml with intra- and interassay coefficient of variations of 3.1 and 5.7%, respectively. The reference interval was 0.20-5.10 μg/ml.
(§6) For statistical evaluation of the serum C-reactive protein and homocysteine, a two-way ANOVA with Bonferroni post-test was performed.

[4] = tested on: fasting insulin; assay: Fasting insulin levels in postmenopausal women, six month treatment (ELISA); format: in vivo, human; conditions: for Fasting Insulin: n = 30, mean±SEM
Excerpt: as §1, §2
To measure fasting insulin levels, insulin was measured by a commercially available ELISA kit according to the protocol of the manufacturer (DRG Diagnostik, Frauenberg Germany) (intraassay CV 4%; interassay CV 6%; lower detection limit, <1.5 μlU/ml).
as §4

[5] = tested on: fibrinogen; assay: Fibrinogen levels in postmenopausal women, six month treatment; format: in vivo, human; conditions: for Fibrinogen: n = 30, mean±SEM
Excerpt: as §1, §2
To measure fibrinogen levels, automated routine procedures were utilized.
as §4

[6] = tested on: osteoprotegerin; assay: Osteoprotegerin levels in postmenopausal women, six month treatment (ELISA); format: in vivo, human; conditions: for Osteoprotegerin: n = 30, mean±SEM
Excerpt: as §1, §2
To measure osteoprotegerin levels, a commercially available ELISA kit according to the protocol of the manufacturer (Immunodiagnostik Bensheim Germany) was utilized. This assay detects monomeric, dimeric, and ligand-bound forms of OPG (intra-assay CV 5%; interassay CV 6%; lower detection limit, 0.14 pmol/l).
as §4

[7] = Plasma genistein levels in postmenopausal women, six month treatment (HPLC-UV); format: in vivo, human; conditions: for Plasma Genistein: baseline, prior to six month treatment, n = 30
Excerpt: as §1, §2, §3, §4

[8] = tested on: homocysteine; assay: Plasma homocysteine in osteopenic women, six month study (immunochemiluminescent assay); format: in vivo, human
Excerpt: as §5, with “The participants were then randomly assigned to receive either genistein, HRT or a placebo.” left out
Plasma homocysteine was measured using an immunochemiluminescent assay (Immulite DPC, Los Angeles, Calif., USA). Samples were stored after separation at −80° C. until assayed. Homocysteine was assayed on plasma samples after treatment with S-adenosyl-L-homocysteine (SAH) hydrolase and dithiothreitol (DTT) solution. EDTA plasma was separated from the cells as soon as possible after collection. Samples were stored on ice between the time of sampling and centrifugation.
as §6

[9] = tested on: insulin resistance; assay: Insulin resistance (HOMA-IR) in postmenopausal women, six month treatment; format: in vivo, human; conditions: for Insulin resistance: HOMA-IR, n = 30, mean±SEM
Excerpt: as §1, §2
To measure insulin resistance levels, insulin was measured by a commercially available ELISA kit according to the protocol of the manufacturer (DRG Diagnostik, Frauenberg Germany) (intraassay CV 4%; interassay CV 6%; lower detection limit, <1.5 μlU/ml). Serum glucose was measured by an enzymatic kit (BioSystemSA, Barcelona, Spain), (intra-assay CV 1%; interassay CV 1.8%; lower detection limit, 0.0126 mmol/l). Glucose in the sample produces, by means of the coupled reactions, a colored complex that can be spectrophotometrically measured. Insulin resistance was calculated using the Homeostasis Model Assessment method (HOMA-IR=(insulin×glucose)/22.5).
as §4

[10] = tested on: fasting glucose; assay: Fasting glucose levels in postmenopausal women, six month treatment (enzymatic kit); format: in vivo, human; conditions: for Fasting Glucose: n = 30, mean±SEM
Excerpt: as §1, §2
To measure fasting glucose levels, serum glucose was measured by an enzymatic kit (BioSystemSA, Barcelona, Spain), (intra-assay CV 1%; interassay CV 1.8%; lower detection limit, 0.0126 mmol/L). Glucose in the sample produces, by means of the coupled reactions, a colored complex that can be spectrophotometrically measured.
as §4

[11] = target: T1, estrogen receptor ERα (Homo sapiens, UniProt P03372); conditions: competition assays, literature (Morito et al. 2001); cited from earlier work
T1 sequence (P03372 1-595): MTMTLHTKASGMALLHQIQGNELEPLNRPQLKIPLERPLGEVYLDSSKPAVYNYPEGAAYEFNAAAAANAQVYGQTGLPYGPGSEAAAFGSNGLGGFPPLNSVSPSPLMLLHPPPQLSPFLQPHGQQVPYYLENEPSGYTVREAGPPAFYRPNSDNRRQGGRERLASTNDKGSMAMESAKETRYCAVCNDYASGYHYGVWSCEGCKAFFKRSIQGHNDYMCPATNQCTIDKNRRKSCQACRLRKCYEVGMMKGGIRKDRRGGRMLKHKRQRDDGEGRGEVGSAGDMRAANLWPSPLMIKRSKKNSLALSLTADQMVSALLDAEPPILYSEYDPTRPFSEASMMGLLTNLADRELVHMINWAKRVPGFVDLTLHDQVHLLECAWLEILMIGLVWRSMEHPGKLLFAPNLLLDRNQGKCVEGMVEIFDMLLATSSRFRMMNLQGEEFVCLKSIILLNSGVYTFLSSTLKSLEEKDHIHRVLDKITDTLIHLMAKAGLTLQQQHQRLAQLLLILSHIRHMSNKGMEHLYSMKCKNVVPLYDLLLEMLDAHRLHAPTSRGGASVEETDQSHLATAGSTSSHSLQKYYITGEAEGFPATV

[12] = target: estrogen receptor ERβ (Homo sapiens, UniProt Q92731); conditions: competition assays, literature (Morito et al. 2001); cited from earlier work
[13] = after six months, genistein 54 mg/d
[14] = after six months, genistein 54 mg/d, listed as genistein
[15] = baseline to six months, not taking uncertainties into account
[16] = baseline, prior to six month treatment
[17] = baseline, prior to six month treatment, listed as genistein
[18] = osteopenic women, after six months, genistein 54 mg/day or HRT, mean ± SE
[19] = osteopenic women, before treatment (baseline), n = 30, mean ± SE

estrogen receptor ERβ, sequence (Q92731 whole entry): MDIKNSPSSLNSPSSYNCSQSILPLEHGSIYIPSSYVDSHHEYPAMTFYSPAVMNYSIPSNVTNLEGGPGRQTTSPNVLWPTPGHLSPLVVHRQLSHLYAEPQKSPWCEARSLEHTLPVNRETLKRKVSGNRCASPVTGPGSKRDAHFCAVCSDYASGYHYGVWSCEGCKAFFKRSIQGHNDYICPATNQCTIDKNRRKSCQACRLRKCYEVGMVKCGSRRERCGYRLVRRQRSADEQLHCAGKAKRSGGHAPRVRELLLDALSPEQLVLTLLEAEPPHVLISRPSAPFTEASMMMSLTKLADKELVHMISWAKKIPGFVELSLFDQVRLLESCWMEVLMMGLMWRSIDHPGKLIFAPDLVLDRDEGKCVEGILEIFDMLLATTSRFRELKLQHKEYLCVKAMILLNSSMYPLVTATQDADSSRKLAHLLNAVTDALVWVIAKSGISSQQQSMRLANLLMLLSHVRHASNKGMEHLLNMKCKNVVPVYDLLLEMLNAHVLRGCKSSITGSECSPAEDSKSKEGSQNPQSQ

O=c1c(-c2ccc(O)cc2)coc2cc(O)cc(O)c12 [Genistein, 4′,5,7-Trihydroxyisoflavone 5,7-Dihydroxy-3-(4-hydroxyphenyl)-4H-1-benzopyran-4-one]
Estradiol levels, six month readings ([1]; after 6 months, genistein 54 mg/d, FIG. 4A): approximately 78 pmol/L
Estradiol [1]: 73 ± 2.19 pmol/L
Estradiol ([1]; listed as genistein): approximately 74 pmol/L
Effect on estradiol levels ([1]; given over a six month period, FIG. 4A): does not significantly elevate estradiol levels
Sex Hormone Binding Globulin [2, 13]: 63 ± 3.83 nmol/L
Sex Hormone Binding Globulin [2, 14]: 63 ± 3.83 nmol/L
Decrease of sex hormone binding globulin levels [2, 15]: ~11.3%
Sex Hormone Binding Globulin [2, 16]: 71 ± 4.2 nmol/L
Sex Hormone Binding Globulin [2, 17]: 71 ± 4.2 nmol/L
C-reactive protein level, change from baseline ([3]; after 6 months of treatment): no significant differences at the end of treatment from baseline
Serum C-reactive protein (CRP), After [3, 18]: 2.13 ± 0.45 mg/L
Serum C-reactive protein (CRP), Before [3, 19]: 1.73 ± 0.31 mg/L
Decrease of fasting insulin levels ([4]; after six months, FIG. 6): −12±3.33%
Fasting Insulin [4, 13]: 6.24 ± 0.45
Fasting Insulin [4, 16]: 7 ± 0.55
Fibrinogen [5, 13]: 3.18 ± 0.12 g/L
Fibrinogen [5, 14]: 3.18 ± 0.12 g/L
Decrease of fibrinogen levels [5, 15]: ~11.7%
Fibrinogen [5, 16]: 3.6 ± 0.12 g/L
Fibrinogen [5, 17]: 3.6 ± 0.12 g/L
Decrease of osteoprotegerin levels ([6]; after six months, FIG. 8): −2±0.3%
Osteoprotegerin [6, 13]: 4.4 ± 0.11
Osteoprotegerin [6, 16]: 4.67 ± 0.13
Increase in plasma genistein levels after 6 months of treatment ([7]; 6 months vs baseline): approximately 60%
Plasma Genistein [7]: 0.07 ± 0.004 µmol/L
Plasma Genistein ([7]; listed as genistein): approximately 0.75 μmol/l
concentration at 6 months ([7]; female, human, in vivo, 54 mg/d): ~1200 nM
Plasma homocysteine mean value, change from baseline ([8]; after six months, difference not statistically significant (P>0.05)): slightly decreased from baseline
Plasma homocysteine, After [8, 18]: 10.72 ± 0.46 µmol/L
Plasma homocysteine, Before [8, 19]: 11.36 ± 0.39 µmol/L
Decrease of insulin resistance levels ([9]; after six months, FIG. 7): −14±5.8%
Insulin resistance [9, 13]: 1.18 ± 0.08
Insulin resistance [9, 16]: 1.47 ± 0.12
Decrease in levels of fasting glucose ([10]; after six months of treatment, P<0.001 as compared to placebo, FIG. 5): 8.7±2.3%
Fasting Glucose [10, 13]: 4.3 ± 0.10
Fasting Glucose [10, 16]: 4.74 ± 0.11

O=C1c2c(O)cc(O)cc2OCC1c1ccc(O)cc1 (stereo not shown) [dihydrogenistein]
Binding to estrogen receptor ERα [11]: binding similar to the isoflavones, but lower than genistein
Binding to estrogen receptor ERβ [12]: binding similar to the isoflavones, but lower than genistein

Oc1ccc([C@H]2COc3cc(O)ccc3C2)cc1 [equol]
Binding to estrogen receptor ERα [11]: binding similar to the isoflavones, but lower than genistein
Binding to estrogen receptor ERβ [12]: binding similar to the isoflavones, but lower than genistein

— patent publication US20070207225A1 (priority 2006, published 2007)
